Consider 17 compounds from paper PMC9945734 (BMC Medicine, 2023).

Read-outs that look alike come from different tables or passages of the source.

This assay concerns PC-3-KQ cells. Kind of assay: 3D spheroid invasion assay and screening of FDA-approved drugs. Format: cell-based, human. The conditions noted are these: for activity at 0.01 µM / activity at 0.1 µM / activity at 1 µM / activity at 10 µM: 72 h; for activity at 0.01 µM / activity at 0.1 µM / activity at 1 µM / activity at 10 µM / Invasion rates (%) of each drug’s multiple concentrations (μM): compared to vehicle control. A digest of the protocol:
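Cells were clustered into spheroids by centrifugation and grown 3 days, then embedded in matrigel-medium containing drug on day 4 and cultured another 3 days. Drugs were screened at 10 μM first, then at 0–10 μM, in duplicate wells. Invasion area is total area minus core sphere area from phase-contrast images.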

The mark [1] stands for this setting: Homo sapiens, 0.01 μM (first column so headed), secondary screening of 87 hit compounds (Table S1), read-out: Invasion rates (%) of each drug’s multiple concentrations.
[2] abbreviates: Homo sapiens, 0.01 μM (second column so headed), secondary screening of 87 hit compounds (Table S1), read-out: Invasion rates (%) of each drug’s multiple concentrations.
Where [3] appears, read: Homo sapiens, 0.1 μM, secondary screening of 87 hit compounds (Table S1), read-out: Invasion rates (%) of each drug’s multiple concentrations.
Where [4] appears, read: Homo sapiens, 1 μM, secondary screening of 87 hit compounds (Table S1), read-out: Invasion rates (%) of each drug’s multiple concentrations.
[5] abbreviates: Homo sapiens, 10 μM, secondary screening of 87 hit compounds (Table S1), read-out: Invasion rates (%) of each drug’s multiple concentrations.
The mark [6] stands for this setting: Homo sapiens, 0.01 μM (first column so headed), third screening of 25 hit compounds (Table S2), read-out: Invasion rates (%) of each drug’s multiple concentrations.
The mark [7] stands for this setting: Homo sapiens, 0.01 μM (second column so headed), third screening of 25 hit compounds (Table S2), read-out: Invasion rates (%) of each drug’s multiple concentrations.
[8] abbreviates: Homo sapiens, 0.1 μM, third screening of 25 hit compounds (Table S2), read-out: Invasion rates (%) of each drug’s multiple concentrations.
The mark [9] stands for this setting: Homo sapiens, 1 μM, third screening of 25 hit compounds (Table S2), read-out: Invasion rates (%) of each drug’s multiple concentrations.
Where [10] appears, read: Homo sapiens, 10 μM, third screening of 25 hit compounds (Table S2), read-out: Invasion rates (%) of each drug’s multiple concentrations.
Where [11] appears, read: 0.01 μM (first column so headed), secondary screening of 87 hit compounds (Table S1).
Where [12] appears, read: 0.01 μM (second column so headed), secondary screening of 87 hit compounds (Table S1).
Setting [13] is: 0.1 μM, secondary screening of 87 hit compounds (Table S1).
[14] abbreviates: 1 μM, secondary screening of 87 hit compounds (Table S1).
[15] abbreviates: 10 μM, secondary screening of 87 hit compounds (Table S1).

Take `Cc1ccc(C(=O)Nc2ccc(CN3CCN(C)CC3)c(C(F)(F)F)c2)cc1C#Cc1cnc2cccnn12` [Ponatinib]: the activity at 0.01 µM (Homo sapiens, read-out: Invasion rates (%) of each drug’s multiple concentrations (μM), 0.01 μM (first column so headed), secondary screening of 87 hit compounds (Table S1)) turned out to be 94.4% and the activity at 0.01 µM (Homo sapiens, read-out: Invasion rates (%) of each drug’s multiple concentrations (μM), 0.01 μM (second column so headed), secondary screening of 87 hit compounds (Table S1)) amounted to 94.5%. Under “Homo sapiens, read-out: Invasion rates (%) of each drug’s multiple concentrations (μM), 0.1 μM, secondary screening of 87 hit compounds (Table S1)”, the activity at 0.1 µM amounted to 94.8%. In addition, the activity at 1 µM (Homo sapiens, read-out: Invasion rates (%) of each drug’s multiple concentrations (μM), 1 μM, secondary screening of 87 hit compounds (Table S1)) is 91%. In addition, the activity at 10 µM (Homo sapiens, read-out: Invasion rates (%) of each drug’s multiple concentrations (μM), 10 μM, secondary screening of 87 hit compounds (Table S1)) came to 17.7%.
In the case of `CN(C)C(=O)c1cc2cnc(Nc3ccc(N4CCNCC4)cn3)nc2n1C1CCCC1` [Ribociclib], the activity at 0.01 µM worked out at 99.5% under setting [1] and 101% under setting [2]. Besides, the activity at 0.1 µM under setting [3] came out at 97.2%. In addition, the activity at 1 µM under setting [4] was 96%. In addition, the activity at 10 µM under setting [5] came to 30.9%.
As a reminder, the inhibition is the change of the read-out against control, counted positive when it falls. Regarding `Cn1c([N+](=O)[O-])cnc1COC(N)=O` [Ronidazole], the activity at 0.01 µM runs as follows: under setting [1], 64.2%; under setting [6], 81.8%; under setting [2], 67.3%; under setting [7], 87.5%. The activity at 0.1 µM is, setting by setting: under setting [3], 27.6%; under setting [8], 5.74%. The activity at 1 µM reads like this: under setting [4], 5.96%; under setting [9], 3.06%. Further, the activity at 10 µM reads like this: under setting [5], 5.14%; under setting [10], 2.89%. Also, under “Homo sapiens, at 0.1 μM, read-out: inhibition of cell invasion”, the inhibition at 0.1 µM was > 50%.
As for `Cc1ncc([N+](=O)[O-])n1CC(C)O` (stereo not shown) [Secnidazole], the activity at 0.01 µM amounted to 94.7% under setting [1] and 96.4% under setting [2]. The activity at 0.1 µM under setting [3] amounted to 89%. Further, the activity at 1 µM under setting [4] came to 82.8%. For the same compound, the activity at 10 µM under setting [5] amounted to 4.4%.
The corresponding values for `COc1ccc2c(O[C@@H]3C[C@H]4C(=O)N[C@]5(C(=O)NS(=O)(=O)C6CC6)C[C@H]5/C=C\CCCCN(C)C(=O)[C@@H]4C3)cc(-c3nc(C(C)C)cs3)nc2c1C` [Simeprevir] are 98.5%, 101%, 97.2%, 96.2% and 38.8%.
On the same counts, the results for `CNC(=O)c1cc(Oc2ccc(NC(=O)Nc3ccc(Cl)c(C(F)(F)F)c3)cc2)ccn1` [Sorafenib] are 91.9%, 101%, 91.9%, 76.2% and 43.3%.
As for `CCN(CC)CCNC(=O)c1c(C)[nH]c(/C=C2\C(=O)Nc3ccc(F)cc32)c1C` [Sunitinib], the activity at 0.01 µM was determined as 88.6% under setting [1] and 94.9% under setting [2]. For the same compound, the activity at 0.1 µM under setting [3] came to 83.7%. Moreover, the activity at 1 µM under setting [4] was 61.1%. Besides, the activity at 10 µM under setting [5] worked out at 0.8%.
In the case of `CC/C(=C(\c1ccccc1)c1ccc(OCCN(C)C)cc1)c1ccccc1.O=C(O)CC(O)(CC(=O)O)C(=O)O` [Tamoxifen (Citrate)], the “Invasion rates (%) of each drug’s multiple concentrations (μM)” value (from here on “Invasion rates (%)”) amounted to 94.34% under setting [11]; 97.97% under setting [12]; 91.22% under setting [13]; 85.65% under setting [14]; 1.00% under setting [15].
As to `CC/C(=C(\c1ccccc1)c1ccc(OCCN(C)C)cc1)c1ccccc1` [Tamoxifen], the activity at 0.01 µM reads like this: under setting [1], 96.2%; under setting [2], 95.4%. The activity at 0.1 µM under setting [3] stood at 97%. The activity at 1 µM under setting [4] is 91.1%. Further, the activity at 10 µM under setting [5] was 24.3%.
With `Cn1nnc(-c2ccc(-c3ccc(N4C[C@H](COP(=O)(O)O)OC4=O)cc3F)cn2)n1` [Tedizolid (phosphate)], the activity at 0.01 µM is, setting by setting: under setting [1], 89%; under setting [6], 99.8%; under setting [2], 91.7%; under setting [7], 96.1%. Also, the activity at 0.1 µM came to 70.7% under setting [3] and 90.7% under setting [8]. Besides, the activity at 1 µM by setting is: under setting [4], 3.59%; under setting [9], 3.28%. The activity at 10 µM is, setting by setting: under setting [5], 3.35%; under setting [10], 2.87%.
For `COc1cc([C@@H]2c3cc4c(cc3[C@@H](O[C@@H]3O[C@@H]5CO[C@@H](c6cccs6)O[C@H]5[C@H](O)[C@H]3O)[C@H]3COC(=O)[C@H]23)OCO4)cc(OC)c1O` [Teniposide], the activity at 0.01 µM worked out at 93.1% under setting [1] and 91.8% under setting [2]. Also, the activity at 0.1 µM under setting [3] was found to be 85%. For the same compound, the activity at 1 µM under setting [4] worked out at 77.2%. The activity at 10 µM under setting [5] came to 3.21%.
Turning to `CN(C)[C@@H]1C(O)=C(C(N)=O)C(=O)[C@@]2(O)C(O)=C3C(=O)c4c(O)cccc4[C@@](C)(O)[C@H]3C[C@@H]12.Cl` [Tetracycline (hydrochloride)], the “Invasion rates (%)” value by setting is: under setting [11], 84.87%; under setting [12], 95.46%; under setting [13], 83.74%; under setting [14], 67.27%; under setting [15], 2.14%.
With `CS(=O)(=O)c1ccc([C@@H](O)[C@@H](CO)NC(=O)C(Cl)Cl)cc1` [Thiamphenicol], the activity at 0.01 µM came out at 90.9% under setting [1] and 92% under setting [2]. Under setting [3], the activity at 0.1 µM was 91.7%. The activity at 1 µM under setting [4] came to 71.5%. Also, under setting [5], the activity at 10 µM came out at 6.21%.
As to `CN(C)c1cc(NC(=O)CNC(C)(C)C)c(O)c2c1C[C@H]1C[C@H]3[C@H](N(C)C)C(=O)C(C(N)=O)=C(O)[C@@]3(O)C(=O)C1=C2O.CS(=O)(=O)O.CS(=O)(=O)O.CS(=O)(=O)O.CS(=O)(=O)O` [Tigecycline (tetramesylate)], the “Invasion rates (%)” value under setting [11] came out at 59.60%; the “Invasion rates (%)” value (0.01 μM (first column so headed), third screening of 25 hit compounds (Table S2)) was 89.06%; the “Invasion rates (%)” value under setting [12] turned out to be 77.93%; the “Invasion rates (%)” value (0.01 μM (second column so headed), third screening of 25 hit compounds (Table S2)) stood at 89.80%; the “Invasion rates (%)” value under setting [13] worked out at 4.93%; the “Invasion rates (%)” value (0.1 μM, third screening of 25 hit compounds (Table S2)) was 88.10%. The “Invasion rates (%)” value came to 4.75% under setting [14]; 2.36% (1 μM, third screening of 25 hit compounds (Table S2)); 8.35% under setting [15]; 1.12% (10 μM, third screening of 25 hit compounds (Table S2)).
With `CCN(CC)CCOc1ccc2c(c1)C(=O)c1cc(OCCN(CC)CC)ccc1-2.Cl.Cl` [Tilorone (dihydrochloride)], the “Invasion rates (%)” value was found to be 95.38% under setting [11]; 99.11% under setting [12]; 94.30% under setting [13]; 93.22% under setting [14]; 9.81% under setting [15].
On to `CCS(=O)(=O)CCn1c([N+](=O)[O-])cnc1C` [Tinidazole], for which the activity at 0.01 µM was 78.9% under setting [1], 89.2% under setting [6], 90.7% under setting [2] and 88.2% under setting [7]. The activity at 0.1 µM is, setting by setting: under setting [3], 47.1%; under setting [8], 90.2%. In addition, the activity at 1 µM stood at 6.59% under setting [4] and 8.88% under setting [9]. For the same compound, the activity at 10 µM runs as follows: under setting [5], 2.67%; under setting [10], 2.87%.
In the case of Acetylspiramycin, the “Invasion rates (%)” value under setting [11] stood at 96.71%; the “Invasion rates (%)” value under setting [12] was determined as 96.46%; the “Invasion rates (%)” value under setting [13] came to 96.77%; the “Invasion rates (%)” value under setting [14] came to 87.68%; the “Invasion rates (%)” value under setting [15] came to 2.37%.
